Legend:
KRAS G12D [1] = target: T1, KRAS G12D (Homo sapiens (Human), UniProt P01116, G12D); experiment: KRAS G12D RAF Disruption Assay (HTRF); type: biochemical; conditions: recombinant GMPPNP-loaded KRAS G12D (5 nM), GST-RAF1 RBD (9 nM), HTRF signal
Protocol: Recombinant GMPPNP-loaded KRAS G12D (5 nM) was treated with compound at room temperature for 20 minutes in assay buffer (50 mM Tris pH 7.5, 100 mM NaCl, 1 mM MgCl2, 1 mM DTT, 100 ug/mL BSA).

KRAS G12D [2] = target: T1, KRAS G12D; experiment: KRAS G12D Nucleotide Exchange Assay (HTRF); type: biochemical; conditions: recombinant GDP-loaded KRAS G12D (20 nM), BIODIPY-labeled GDP (400 nM), recombinant SOS (10 nM), HTRF signal
Protocol: Recombinant GDP-loaded KRAS G12D (20 nM) was treated with compound at room temperature for 20 minutes in assay buffer (10 mM Hepes pH 7.4, 150 mM NaCl, 5 mM MgCl2, 0.0025% Igepal-CA630, 0.05% BSA, 1 mM DTT, 0.5 nM SA-Tb). BIODIPY-labeled GDP (400 nM) and recombinant SOS (10 nM) were added, and the reaction was incubated for 30 minutes.

T1 sequence (P01116-2 other isoform, or with tags, fused parts or gaps G12D): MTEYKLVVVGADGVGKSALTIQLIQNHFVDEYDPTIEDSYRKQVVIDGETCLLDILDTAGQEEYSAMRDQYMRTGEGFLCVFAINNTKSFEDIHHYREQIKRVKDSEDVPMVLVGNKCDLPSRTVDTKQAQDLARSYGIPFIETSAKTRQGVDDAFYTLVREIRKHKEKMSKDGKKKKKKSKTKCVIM

Row | SMILES | KRASG12D RAF Disruption Assay (IC50, µM) (KRAS G12D [1]) | KRASG12D Nucleotide Exchange Assay (IC50, µM) (KRAS G12D [2])
1 | CO[C@@H]1C[C@@H](COc2nc(N3CC[C@H]4CC[C@@H](C3)N4)c3cc(Cl)c(-c4nc(N)cc(C)c4C(F)(F)F)c(F)c3n2)N(C)C1 [Example 4-4, 6-{6-chloro-4-[(1S,6R)-3,9-diazabicyclo[4.2.1]nonan-3-yl]-8-fluoro-2-{[(2S,4R)-4-methoxy-1-methylpyrrolidin-2-yl]methoxy}quinazolin-7-yl}-4-methyl-5-(trifluoromethyl)pyridin-2-amine] | 1.81 µM | 0.010 µM
2 | CN1CCC[C@H]1COc1nc(N2CC[C@H]3CC[C@@H](C2)N3)c2cc(Cl)c(-c3cc(O)cc4ccccc34)c(F)c2n1 [Example 6, 4-{6-chloro-4-[(1S,6R)-3,9-diazabicyclo[4.2.1]nonan-3-yl]-8-fluoro-2-{[(2S)-1-methylpyrrolidin-2-yl]methoxy}quinazolin-7-yl}naphthalen-2-ol] | 3.68 µM | 0.01 µM
3 | Cc1cc(N)nc(-c2c(Cl)cc3c(N4CC[C@H]5CC[C@@H](C4)N5)nc(OCC4(CN5CCCC(F)C5)CC4)nc3c2F)c1C(F)(F)F (stereo partly drawn) [Example 10-3, 6-{6-chloro-4-[(1S,6R)-3,9-diazabicyclo[4.2.1]nonan-3-yl]-8-fluoro-2-({1-[(3-fluoropiperidin-1-yl)methyl]cyclopropyl}methoxy)quinazolin-7-yl}-4-methyl-5-(trifluoromethyl)pyridin-2-amine] | 2.7 µM | 0.01 µM
4 | Cc1cc(N)nc(-c2c(Cl)cc3c(N4CC[C@H]5CC[C@@H](C4)N5)nc(OC[C@@]45CCCN4C[C@@H](F)C5)nc3c2F)c1C(F)(F)F [Example 5, 6-(2-{[(2S,7aS)-2-fluoro-hexahydro-1H-pyrrolizin-7a-yl]methoxy}-6-chloro-4-[(1S,6R)-3,9-diazabicyclo[4.2.1]nonan-3-yl]-8-fluoroquinazolin-7-yl)-4-methyl-5-(trifluoromethyl)pyridin-2-amine] | 2.87 µM | <0.002 µM
5 | CCc1cccc2cc(O)cc(-c3ccc4c(N5CC[C@H]6CC[C@@H](C5)N6)nc(OC[C@]56CCC[C@H]5N(C)CCC6)nc4c3F)c12 [Example 9-3, 4-(2-{[(4aS,7aR)-1-methyl-octahydro-1H-cyclopenta[b]pyridin-4a-yl]methoxy}-4-[(1S,6R)-3,9-diazabicyclo[4.2.1]nonan-3-yl]-8-fluoroquinazolin-7-yl)-5-ethylnaphthalen-2-ol] | 3.0 µM | 0.05 µM
6 | Cc1cc(N)nc(-c2c(Cl)cc3c(N4CC[C@H]5CC[C@@H](C4)N5)nc(OC[C@@]45CCCN4C[C@@H](OC(F)F)C5)nc3c2F)c1C(F)(F)F (single isomer, unassigned) [Example 10-5] | 81 µM | 0.9 µM
7 | Cc1cc(N)nc(-c2c(Cl)cc3c(N4CC[C@H]5CC[C@@H](C4)N5)nc(OC[C@@]45C[C@@H](F)CN4CC4(CC4)C5)nc3c2F)c1C(F)(F)F [Example 13-1, 6-(2-{[(6′R, 7′aR)-6′-fluoro-hexahydrospiro[cyclopropane-1,2′-pyrrolizine]-7′a-yl]methoxy}-6-chloro-4-[(1S,6R)-3,9-diazabicyclo[4.2.1]nonan-3-yl]-8-fluoroquinazolin-7-yl)-4-methyl-5-(trifluoromethyl)pyridin-2-amine] | 0.22 µM | 0.01 µM
8 | CCc1cccc2cccc(-c3ccc4c(N5CC[C@H]6CC[C@@H](C5)N6)nc(OC[C@@]56CCCN5C[C@H](F)C6)nc4c3F)c12 [Example 11-8, 2-{[(2R,7aS)-2-fluoro-hexahydro-1H-pyrrolizin-7a-yl]methoxy}-4-[(1S,6R)-3,9-diazabicyclo[4.2.1]nonan-3-yl]-7-(8-ethylnaphthalen-1-yl)-8-fluoroquinazoline] | 54.4 µM | 2.0 µM
9 | C#Cc1c(F)ccc2cc(O)cc(-c3ccc4c(N5CC[C@H]6CC[C@@H](C5)N6)nc(OC[C@]56CCC[C@H]5N(C)CCC6)nc4c3F)c12 [Example 9-4, 4-(2-{[(4aS,7aR)-1-methyl-octahydro-1H-cyclopenta[b]pyridin-4a-yl]methoxy}-4-[(1S,6R)-3,9-diazabicyclo[4.2.1]nonan-3-yl]-8-fluoroquinazolin-7-yl)-5-ethynyl-6-fluoronaphthalen-2-ol] | 0.2 µM | 0.02 µM
10 | Oc1cc(-c2ccc3c(N4CC[C@H]5CC[C@@H](C4)N5)nc(OC[C@@]45CCCN4C[C@H](F)C5)nc3c2F)c2ccccc2c1 [Example 11-7, 4-(2-{[(2R,7aS)-2-fluoro-hexahydro-1H-pyrrolizin-7a-yl]methoxy}-4-[(1S,6R)-3,9-diazabicyclo[4.2.1]nonan-3-yl]-8-fluoroquinazolin-7-yl)naphthalen-2-ol] | 5.1 µM | 0.06 µM
11 | Oc1cc(-c2c(Cl)cc3c(N4CC[C@H]5CC[C@@H](C4)N5)nc(OC[C@@]45CCCN4C[C@H](F)C5)nc3c2F)c2c(F)cccc2c1 (single isomer, unassigned) [Example 8-6] | 3.6 µM | 0.07 µM
12 | Cc1cc(N)nc(-c2ccc3c(N4CC[C@H]5CC[C@@H](C4)N5)nc(OCC45CCCN4CC(F)(F)C5)nc3c2F)c1C(F)(F)F (stereo partly drawn) [Example 12-4, 6-{4-[(1S,6R)-3,9-diazabicyclo[4.2.1]nonan-3-yl]-2-[(2,2-difluoro-hexahydro-1H-pyrrolizin-7a-yl)methoxy]-8-fluoroquinazolin-7-yl}-4-methyl-5-(trifluoromethyl)pyridin-2-amine] | >100 µM | 1.1 µM
13 | CCc1cccc2cc(O)cc(-c3c(Cl)cc4c(N5CC[C@H]6CC[C@@H](C5)N6)nc(OC[C@]56CCCN5C[C@@H](F)C6)nc4c3F)c12 (single isomer, unassigned) [Example 8-4] | 37.8 µM | 7.7 µM
14 | Cc1cc(N)nc(-c2c(Cl)cc3c(N4CC[C@H]5CC[C@@H](C4)N5)nc(OC[C@@]45CCCN4C[C@@H](OC(F)F)C5)nc3c2F)c1C(F)(F)F (single isomer, unassigned) [Example 10-6] | >100 µM | 0.2 µM
15 | Cc1cc(N)nc(-c2c(Cl)cc3c(N4CC[C@H]5CC[C@@H](C4)N5)nc(OCC4(CN5C6CCC5COC6)CC4)nc3c2F)c1C(F)(F)F [Example 10-2, 6-{6-chloro-4-[(1S,6R)-3,9-diazabicyclo[4.2.1]nonan-3-yl]-8-fluoro-2-{[1-({3-oxa-8-azabicyclo[3.2.1]octan-8-yl}methyl)cyclopropyl]methoxy}quinazolin-7-yl}-4-methyl-5-(trifluoromethyl)pyridin-2-amine] | 1.0 µM | 0.006 µM
16 | Cc1cc(N)nc(-c2c(Cl)cc3c(N4CC[C@H]5CC[C@@H](C4)N5)nc(OC[C@@]45CCCN4C[C@H](F)C5)nc3c2F)c1C(F)(F)F [Example 4-1, 6-(2-{[(2R,7aS)-2-fluoro-hexahydro-1H-pyrrolizin-7a-yl]methoxy}-6-chloro-4-[(1S,6R)-3,9-diazabicyclo[4.2.1]nonan-3-yl]-8-fluoroquinazolin-7-yl)-4-methyl-5-(trifluoromethyl)pyridin-2-amine] | 0.06 µM | 0.005 µM
17 | Oc1cc(-c2c(Cl)cc3c(N4CC[C@H]5CC[C@@H](C4)N5)nc(OC[C@@]45CCCN4C[C@H](F)C5)nc3c2F)c2ccccc2c1 (single isomer, unassigned) [Example 8-8] | 15.5 µM | 0.3 µM
18 | Cc1cc(N)nc(-c2c(Cl)cc3c(N4CC[C@H]5CC[C@@H](C4)N5)nc(OCC4(CN5CCOCC5)CC4)nc3c2F)c1C(F)(F)F [Example 10-7, 6-{6-chloro-4-[(1S,6R)-3,9-diazabicyclo[4.2.1]nonan-3-yl]-8-fluoro-2-({1-[(morpholin-4-yl)methyl]cyclopropyl}methoxy)quinazolin-7-yl}-4-methyl-5-(trifluoromethyl)pyridin-2-amine] | 12.1 µM | 0.06 µM
19 | Oc1cc(-c2c(Cl)cc3c(N4CC[C@H]5CC[C@@H](C4)N5)nc(OC[C@@]45CCCN4C[C@H](F)C5)nc3c2F)c2ccccc2c1 (single isomer, unassigned) [Example 8-7] | 0.51 µM | 0.006 µM
20 | C#Cc1c(F)ccc2cc(O)cc(-c3ccc4c(N5CC[C@H]6CC[C@@H](C5)N6)nc(OCC5(CN(C)C)CC5)nc4c3F)c12 [Example 11-1, 4-{4-[(1S,6R)-3,9-diazabicyclo[4.2.1]nonan-3-yl]-2-({1-[(dimethylamino)methyl]cyclopropyl}methoxy)-8-fluoroquinazolin-7-yl}-5-ethynyl-6-fluoronaphthalen-2-ol] | 2.7 µM | 0.06 µM

Source: patent publication US20240217982A1, “KRAS INHIBITORS” (Bristol-Myers Squibb Company, priority 2021, published 2024)
